# In patent US10035789B2, “Compounds useful for treating disorders related to RET” (BLUEPRINT MEDICINES CORPORATION, priority 2016, dated 2018):
# Tests used:
# [1] = target: T1, wild type RET (Homo sapiens, UniProt P07949); experiment: RET Wild Type Assay at KM (Caliper electrophoretic mobility shift); format: biochemical; settings: 25 μM ATP, 25° C., 120 minutes
# T1 construct: purchased ProQinase 1090-0000-1
# [2] = target: T2, RET V804L (Homo sapiens, UniProt P07949, V804L); experiment: RET V804L Gatekeeper Mutant Assay at KM (Caliper electrophoretic mobility shift); format: biochemical; settings: 10 μM ATP, 25° C., 120 minutes
# T2 construct: purchased ProQinase 1096-0000-1
# T2 sequence (P07949 29-1114 V804L): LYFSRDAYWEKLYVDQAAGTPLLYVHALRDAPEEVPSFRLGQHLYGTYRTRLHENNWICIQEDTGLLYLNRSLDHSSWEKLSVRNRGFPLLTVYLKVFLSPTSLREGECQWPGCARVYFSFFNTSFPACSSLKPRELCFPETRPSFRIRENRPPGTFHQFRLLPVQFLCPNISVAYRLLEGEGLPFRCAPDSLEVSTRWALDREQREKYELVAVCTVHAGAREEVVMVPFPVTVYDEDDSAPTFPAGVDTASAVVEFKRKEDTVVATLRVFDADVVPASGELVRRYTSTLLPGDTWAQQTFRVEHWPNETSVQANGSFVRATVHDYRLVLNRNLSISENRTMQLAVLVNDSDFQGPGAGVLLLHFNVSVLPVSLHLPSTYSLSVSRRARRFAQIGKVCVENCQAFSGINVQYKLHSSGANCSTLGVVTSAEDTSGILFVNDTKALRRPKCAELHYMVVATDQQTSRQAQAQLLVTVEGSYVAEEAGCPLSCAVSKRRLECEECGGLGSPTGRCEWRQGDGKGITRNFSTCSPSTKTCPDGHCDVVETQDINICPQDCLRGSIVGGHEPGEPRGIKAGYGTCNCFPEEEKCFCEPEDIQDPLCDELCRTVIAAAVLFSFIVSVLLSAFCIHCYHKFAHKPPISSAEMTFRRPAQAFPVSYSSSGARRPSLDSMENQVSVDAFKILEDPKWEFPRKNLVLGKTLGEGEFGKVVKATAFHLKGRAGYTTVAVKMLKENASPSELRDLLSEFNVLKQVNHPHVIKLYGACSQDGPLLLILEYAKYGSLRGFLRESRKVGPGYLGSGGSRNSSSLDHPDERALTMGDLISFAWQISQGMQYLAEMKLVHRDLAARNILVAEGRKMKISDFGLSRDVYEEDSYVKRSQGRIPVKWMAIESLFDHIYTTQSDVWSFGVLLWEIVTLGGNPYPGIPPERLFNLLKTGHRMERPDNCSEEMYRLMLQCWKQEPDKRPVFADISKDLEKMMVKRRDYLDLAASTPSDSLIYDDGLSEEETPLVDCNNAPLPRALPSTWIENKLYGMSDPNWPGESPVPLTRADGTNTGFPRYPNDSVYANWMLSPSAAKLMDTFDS
# T1 sequence (P07949 29-1114): as the sequence (P07949 29-1114 V804L) above, with L776V counted along it
IC50 [1],IC50 [2],SMILES
> 100 nM,10 to 100 nM,Cc1cc(Nc2cc(C)[nH]n2)nc([C@@H]2CC[C@](C)(C(=O)N[C@@H](C)c3ccc(-n4cc(F)cn4)nc3)C2)n1 [Compound 112]
< 10 nM,< 10 nM,"Cc1cc([C@@H]2CC[C@](C)(C(=O)N[C@@H](C)c3ccc(-n4cc(F)cn4)nc3)C2)nc(Nc2cc(C)[nH]n2)n1 (single isomer, unassigned) [Compound 117, (1R,3R or 1S,3S)—N—((S)-1-(6-(4-fluoro-1H-pyrazol-1-yl)pyridin-3-yl)ethyl)-1-methyl-3-(6-methyl-2-((5-methyl-1H-pyrazol-3-yl)amino)pyrimidin-4-yl)cyclopentane-1-carboxamide]"
10 to 100 nM,10 to 100 nM,Cc1cc(Nc2cc(C)[nH]n2)nc([C@H]2CC[C@@](C)(C(=O)N[C@@H](C)c3ccc(-n4cc(F)cn4)nc3)C2)n1 [Compound 113]
< 10 nM,< 10 nM,CCOc1ccc(CNC(=O)C2CC[C@](O)(c3cc(C)cc(Nc4cc(C5CC5)[nH]n4)n3)C2)cc1 (stereo partly shown) [Compound 105]
< 10 nM,< 10 nM,"Cc1cc(Nc2cc(C)[nH]n2)nc([C@@]2(O)CC[C@H](C(=O)N[C@@H](C)c3ccc(-n4cc(F)cn4)nc3)C2)c1 (single isomer, unassigned) [Compound 122]"
< 10 nM,< 10 nM,Cc1cc(Nc2cc(C)[nH]n2)nc([C@]2(O)CC[C@@H](C(=O)NCc3ccc(-n4cccn4)nc3)C2)c1 [Compound 103]
< 10 nM,,Cc1cc(Nc2cc(C)[nH]n2)nc([C@@H]2CC[C@@](C)(C(=O)N[C@@H](C)c3ccc(-n4cc(F)cn4)nc3)C2)n1 [Compound 115]
10 to 100 nM,10 to 100 nM,Cc1cc(Nc2cc(C)[nH]n2)nc([C@]2(O)CC[C@H](C(=O)NCc3ccc(-n4cccn4)nc3)C2)c1 [Compound 102]
10 to 100 nM,10 to 100 nM,"Cc1cc(Nc2cc(C)[nH]n2)nc([C@@H]2CC[C@H](C(=O)N[C@@H](C)c3ccc(-n4cc(F)cn4)nc3)C2)n1 (single isomer, unassigned) [Compound 107]"
10 to 100 nM,< 10 nM,Cc1cc(Nc2cc(C)[nH]n2)nc([C@]2(O)CC[C@@H](C(=O)N[C@@H](C)c3cnc(-n4cc(F)cn4)cn3)C2)c1 [Compound 125]
< 10 nM,,"Cc1cc(Nc2cc(C)[nH]n2)nc([C@]2(O)CC[C@@H](C(=O)N[C@@H](C)c3ccc(-n4cc(F)cn4)nc3)C2)c1 (single isomer, unassigned) [Compound 121]"
< 10 nM,< 10 nM,Cc1cc(Nc2cc(C)[nH]n2)nc([C@@]2(O)CC[C@](C)(C(=O)N[C@@H](C)c3ccc(-n4cc(F)cn4)nc3)C2)c1 [Compound 129]
< 10 nM,< 10 nM,Cc1cc(Nc2cc(C)[nH]n2)nc(C2(O)CCC(C(=O)N[C@@H](C)c3cnc(-n4cc(F)cn4)cn3)C2)c1 (mixture of isomers) [Compound 123]
10 to 100 nM,< 10 nM,Cc1cc(Nc2cc(C)[nH]n2)nc([C@@]2(O)CC[C@@H](C(=O)NCc3ccc(-n4cccn4)nc3)C2)c1 [Compound 101]
< 10 nM,< 10 nM,Cc1cc(Nc2cc(C)[nH]n2)nc([C@]2(O)CC[C@@](C)(C(=O)N[C@@H](C)c3ccc(-n4cc(F)cn4)nc3)C2)c1 [Compound 128]
10 to 100 nM,< 10 nM,Cc1cc(Nc2cc(C3CC3)[nH]n2)nc([C@@]2(O)CC[C@H](C(=O)NCc3ccccc3)C2)c1 [Compound 100]
< 10 nM,< 10 nM,Cc1cc(Nc2cc(C3CC3)[nH]n2)nc([C@@]2(O)CC[C@H](C(=O)NCc3ccc(-n4cc(F)cn4)nc3)C2)c1 [Compound 127]
< 10 nM,< 10 nM,Cc1cc(Nc2cc(C)[nH]n2)nc([C@@]2(O)CC[C@H](C(=O)N[C@@H](C)c3cnc(-n4cc(F)cn4)cn3)C2)c1 [Compound 124]
10 to 100 nM,10 to 100 nM,Cc1cc(Nc2cc(C)[nH]n2)nc([C@]2(O)CC[C@H](C(=O)N[C@@H](C)c3ccc(-n4cc(F)cn4)nc3)C2)c1 [Compound 120]
< 10 nM,< 10 nM,"Cc1cc(Nc2cc(C)[nH]n2)nc([C@@H]2CC[C@@H](C(=O)N[C@@H](C)c3ccc(-n4cc(F)cn4)nc3)C2)n1 (single isomer, unassigned) [Compound 109]"
< 10 nM,< 10 nM,Cc1cc(Nc2cc(C)[nH]n2)nc([C@@]2(O)CC[C@@H](C(=O)N[C@@H](C)c3ccc(-n4cc(F)cn4)nc3)C2)c1 [Compound 119]
< 10 nM,< 10 nM,"Cc1cc(Nc2cc(C)[nH]n2)nc([C@H]2CC[C@H](C(=O)N[C@@H](C)c3ccc(-n4cc(F)cn4)nc3)C2)n1 (single isomer, unassigned) [Compound 110]"
< 10 nM,< 10 nM,Cc1cc(Nc2cc(C)[nH]n2)nc(C2(O)CCC(C(=O)NCc3ccc(-n4nc(C)cc4C)nc3)C2)c1 (mixture of isomers) [Compound 111]
< 10 nM,< 10 nM,Cc1cc(Nc2cc(C)[nH]n2)nc(C2(O)CCC(C(=O)N[C@@H](C)c3ccc(-n4cc(F)cn4)nc3)C2)c1 (stereo partly shown) [Compound 118]
10 to 100 nM,< 10 nM,Cc1cc(Nc2cc(C)[nH]n2)nc([C@@]2(O)CC[C@H](C(=O)NCc3ccc(-n4cccn4)nc3)C2)c1 [Compound 104]
< 10 nM,< 10 nM,"Cc1cc([C@@H]2CC[C@@](C)(C(=O)N[C@@H](C)c3ccc(-n4cc(F)cn4)nc3)C2)nc(Nc2cc(C)[nH]n2)n1 (single isomer, unassigned) [Compound 116, (1R,3R or 1S,3S)—N—((S)-1-(6-(4-fluoro-1H-pyrazol-1-yl)pyridin-3-yl)ethyl)-1-methyl-3-(6-methyl-2-((5-methyl-1H-pyrazol-3-yl)amino)pyrimidin-4-yl)cyclopentane-1-carboxamide]"
< 10 nM,< 10 nM,"Cc1cc(Nc2cc(C)[nH]n2)nc(C2CCC(C(=O)N[C@@H](C)c3ccc(-n4cc(F)cn4)nc3)C2)n1 (mixture of isomers) [Compound 106, N—((S)-1-(6-(4-fluoro-1H-pyrazol-1-yl)pyridin-3-yl)ethyl)-3-(4-methyl-6-((5-methyl-1H-pyrazol-3-yl)amino)pyrimidin-2-yl)cyclopentane-1-carboxamide]"
10 to 100 nM,10 to 100 nM,"Cc1cc(Nc2cc(C)[nH]n2)nc([C@H]2CC[C@@H](C(=O)N[C@@H](C)c3ccc(-n4cc(F)cn4)nc3)C2)n1 (single isomer, unassigned) [Compound 108]"
< 10 nM,< 10 nM,Cc1cc(Nc2cc(C)[nH]n2)nc([C@H]2CC[C@](C)(C(=O)N[C@@H](C)c3ccc(-n4cc(F)cn4)nc3)C2)n1 [Compound 114]
< 10 nM,< 10 nM,Cc1cc(Nc2cc(C)[nH]n2)nc(C2(O)CCC(C(=O)NCc3ccc(-n4cc(Cl)cn4)nc3)C2)c1 (mixture of isomers) [Compound 126]
